In ChEMBL document CHEMBL4507290 (2021):

How the values were obtained:
[1] = target: Tyrosine-protein kinase ABL1 (Homo sapiens) (UniProt P00519); details: Compound concentration 1000.0 nM
[2] = target: Aurora kinase C (Homo sapiens) (UniProt Q9UQB9); details: Compound concentration 1000.0 nM
[3] = target: Cytoplasmic tyrosine-protein kinase BMX (Homo sapiens) (UniProt P51813); details: Compound concentration 1000.0 nM
[4] = target: Protein-tyrosine kinase 6 (Homo sapiens) (UniProt Q13882); details: Compound concentration 1000.0 nM
[5] = target: Calcium/calmodulin-dependent protein kinase type 1G (Homo sapiens) (UniProt Q96NX5); details: Compound concentration 1000.0 nM
[6] = target: Cyclin-dependent kinase 4 (Homo sapiens) (UniProt P11802); details: Compound concentration 1000.0 nM
Chain of Cyclin-dependent kinase 4 (Homo sapiens) (P11802 whole entry): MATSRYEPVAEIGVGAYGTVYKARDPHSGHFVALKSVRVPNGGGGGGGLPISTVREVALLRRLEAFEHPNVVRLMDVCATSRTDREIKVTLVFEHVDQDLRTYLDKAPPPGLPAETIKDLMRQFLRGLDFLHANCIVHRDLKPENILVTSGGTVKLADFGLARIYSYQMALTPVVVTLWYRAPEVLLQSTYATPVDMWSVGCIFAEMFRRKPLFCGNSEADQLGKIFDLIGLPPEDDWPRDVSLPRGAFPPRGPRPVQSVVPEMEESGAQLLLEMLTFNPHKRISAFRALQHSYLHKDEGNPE

[7] = tested on: Epidermal growth factor receptor (Homo sapiens), P00533 [L858R,T790M]; details: Compound concentration 1000.0 nM
[8] = tested on: Epidermal growth factor receptor (Homo sapiens), P00533 [T790M]; details: Compound concentration 1000.0 nM
[9] = target: Eukaryotic translation initiation factor 2-alpha kinase 1 (Homo sapiens) (UniProt Q9BQI3); details: Compound concentration 1000.0 nM
[10] = target: Ephrin type-B receptor 2 (Homo sapiens) (UniProt P29323); details: Compound concentration 1000.0 nM
[11] = target: Mitogen-activated protein kinase 3 (Homo sapiens) (UniProt P27361); details: Compound concentration 1000.0 nM
[12] = target: Mitogen-activated protein kinase 6 (Homo sapiens) (UniProt Q16659); details: Compound concentration 1000.0 nM
[13] = target: Serine/threonine-protein kinase/endoribonuclease IRE1 (Homo sapiens) (UniProt O75460); details: Compound concentration 1000.0 nM
[14] = target: Tyrosine-protein kinase Fer (Homo sapiens) (UniProt P16591); details: Compound concentration 1000.0 nM
[15] = tested on: Fibroblast growth factor receptor 3 (Homo sapiens), P22607 [G697C]; details: Compound concentration 1000.0 nM
[16] = target: G protein-coupled receptor kinase 4 (Homo sapiens) (UniProt P32298); details: Compound concentration 1000.0 nM
Chain of G protein-coupled receptor kinase 4 (Homo sapiens) (P32298 whole entry, looked up): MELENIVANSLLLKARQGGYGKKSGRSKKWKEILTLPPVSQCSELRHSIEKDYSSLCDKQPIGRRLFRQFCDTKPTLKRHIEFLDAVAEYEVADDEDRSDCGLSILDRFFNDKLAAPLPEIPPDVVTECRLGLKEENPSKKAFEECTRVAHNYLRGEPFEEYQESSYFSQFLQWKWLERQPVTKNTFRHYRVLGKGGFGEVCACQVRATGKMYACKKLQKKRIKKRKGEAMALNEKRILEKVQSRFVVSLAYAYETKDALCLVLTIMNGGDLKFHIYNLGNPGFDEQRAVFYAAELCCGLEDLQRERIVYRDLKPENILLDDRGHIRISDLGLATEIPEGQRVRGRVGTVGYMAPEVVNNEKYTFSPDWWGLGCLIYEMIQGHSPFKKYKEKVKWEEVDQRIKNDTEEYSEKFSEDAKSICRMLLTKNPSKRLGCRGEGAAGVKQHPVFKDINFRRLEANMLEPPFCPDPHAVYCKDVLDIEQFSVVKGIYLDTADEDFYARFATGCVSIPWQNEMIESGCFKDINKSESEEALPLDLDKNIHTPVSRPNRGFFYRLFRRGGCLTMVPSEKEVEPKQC

[17] = target: Homeodomain-interacting protein kinase 3 (Homo sapiens) (UniProt Q9H422); details: Compound concentration 1000.0 nM
[18] = target: Tyrosine-protein kinase ITK/TSK (Homo sapiens) (UniProt Q08881); details: Compound concentration 1000.0 nM
[19] = target: Tyrosine-protein kinase JAK1 (Homo sapiens) (UniProt P23458); details: Compound concentration 1000.0 nM
[20] = target: LIM domain kinase 2 (Homo sapiens) (UniProt P53671); details: Compound concentration 1000.0 nM
[21] = target: Leukocyte tyrosine kinase receptor (Homo sapiens) (UniProt P29376); details: Compound concentration 1000.0 nM
[22] = target: Mitogen-activated protein kinase kinase kinase 15 (Homo sapiens) (UniProt Q6ZN16); details: Compound concentration 1000.0 nM
Chain of Mitogen-activated protein kinase kinase kinase 15 (Homo sapiens) (Q6ZN16 whole entry): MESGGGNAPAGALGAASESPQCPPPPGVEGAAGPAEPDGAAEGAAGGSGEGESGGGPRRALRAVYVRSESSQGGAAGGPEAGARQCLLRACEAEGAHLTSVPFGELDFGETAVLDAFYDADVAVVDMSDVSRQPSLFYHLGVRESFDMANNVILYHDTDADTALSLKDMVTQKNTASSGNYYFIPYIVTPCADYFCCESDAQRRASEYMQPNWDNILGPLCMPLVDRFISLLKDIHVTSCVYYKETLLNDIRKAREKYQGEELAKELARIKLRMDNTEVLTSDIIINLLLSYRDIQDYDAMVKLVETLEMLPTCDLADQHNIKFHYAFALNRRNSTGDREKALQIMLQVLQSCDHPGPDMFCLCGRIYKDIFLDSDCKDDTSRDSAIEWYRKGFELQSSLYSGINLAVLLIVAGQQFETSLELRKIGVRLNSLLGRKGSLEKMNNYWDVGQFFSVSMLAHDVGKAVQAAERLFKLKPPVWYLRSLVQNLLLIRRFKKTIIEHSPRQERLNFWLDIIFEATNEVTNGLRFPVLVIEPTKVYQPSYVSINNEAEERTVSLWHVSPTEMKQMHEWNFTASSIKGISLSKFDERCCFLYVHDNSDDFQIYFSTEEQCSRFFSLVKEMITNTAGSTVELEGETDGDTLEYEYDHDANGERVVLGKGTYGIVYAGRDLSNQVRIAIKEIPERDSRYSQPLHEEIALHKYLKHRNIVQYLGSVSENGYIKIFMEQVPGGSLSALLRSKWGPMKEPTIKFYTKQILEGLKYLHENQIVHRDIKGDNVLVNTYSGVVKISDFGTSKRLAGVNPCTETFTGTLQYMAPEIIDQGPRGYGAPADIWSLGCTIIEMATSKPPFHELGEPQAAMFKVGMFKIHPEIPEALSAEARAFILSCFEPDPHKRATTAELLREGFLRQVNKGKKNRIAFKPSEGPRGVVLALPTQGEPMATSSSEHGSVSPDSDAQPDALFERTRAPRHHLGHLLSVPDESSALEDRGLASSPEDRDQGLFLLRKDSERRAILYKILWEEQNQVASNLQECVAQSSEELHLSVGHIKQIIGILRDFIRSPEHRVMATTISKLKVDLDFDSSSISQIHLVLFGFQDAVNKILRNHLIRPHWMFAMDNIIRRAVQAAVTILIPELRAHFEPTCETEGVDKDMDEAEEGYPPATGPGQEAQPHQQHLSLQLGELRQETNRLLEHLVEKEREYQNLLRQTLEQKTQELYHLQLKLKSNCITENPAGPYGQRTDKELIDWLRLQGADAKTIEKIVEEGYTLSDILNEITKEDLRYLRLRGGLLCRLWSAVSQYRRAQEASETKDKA

[23] = target: Mitogen-activated protein kinase kinase kinase 3 (Homo sapiens) (UniProt Q99759); details: Compound concentration 1000.0 nM
[24] = target: Mitogen-activated protein kinase kinase kinase kinase 4 (Homo sapiens) (UniProt O95819); details: Compound concentration 1000.0 nM
[25] = target: Serine/threonine-protein kinase 24 (Homo sapiens) (UniProt Q9Y6E0); details: Compound concentration 1000.0 nM
[26] = target: Serine/threonine-protein kinase Nek11 (Homo sapiens) (UniProt Q8NG66); details: Compound concentration 1000.0 nM
[27] = target: Serine/threonine-protein kinase NIM1 (Homo sapiens) (UniProt Q8IY84); details: Compound concentration 1000.0 nM
[28] = target: Serine/threonine-protein kinase PAK 3 (Homo sapiens) (UniProt O75914); details: Compound concentration 1000.0 nM
[29] = tested on: Phosphatidylinositol 4,5-bisphosphate 3-kinase catalytic subunit alpha isoform (Homo sapiens), P42336 [E542K]; details: Compound concentration 1000.0 nM
[30] = tested on: Phosphatidylinositol 4,5-bisphosphate 3-kinase catalytic subunit alpha isoform (Homo sapiens), P42336 [Q546K]; details: Compound concentration 1000.0 nM
[31] = target: Phosphatidylinositol 4-phosphate 5-kinase type-1 gamma (Homo sapiens) (UniProt O60331); details: Compound concentration 1000.0 nM
[32] = target: Serine/threonine-protein kinase N1 (Homo sapiens) (UniProt Q16512); details: Compound concentration 1000.0 nM
[33] = target: Rho-associated protein kinase 2 (Homo sapiens) (UniProt O75116); details: Compound concentration 1000.0 nM
[34] = target: Serine/threonine-protein kinase Sgk1 (Homo sapiens) (UniProt O00141); details: Compound concentration 1000.0 nM
[35] = target: NUAK family SNF1-like kinase 2 (Homo sapiens) (UniProt Q9H093); details: Compound concentration 1000.0 nM
Chain of NUAK family SNF1-like kinase 2 (Homo sapiens) (Q9H093 whole entry): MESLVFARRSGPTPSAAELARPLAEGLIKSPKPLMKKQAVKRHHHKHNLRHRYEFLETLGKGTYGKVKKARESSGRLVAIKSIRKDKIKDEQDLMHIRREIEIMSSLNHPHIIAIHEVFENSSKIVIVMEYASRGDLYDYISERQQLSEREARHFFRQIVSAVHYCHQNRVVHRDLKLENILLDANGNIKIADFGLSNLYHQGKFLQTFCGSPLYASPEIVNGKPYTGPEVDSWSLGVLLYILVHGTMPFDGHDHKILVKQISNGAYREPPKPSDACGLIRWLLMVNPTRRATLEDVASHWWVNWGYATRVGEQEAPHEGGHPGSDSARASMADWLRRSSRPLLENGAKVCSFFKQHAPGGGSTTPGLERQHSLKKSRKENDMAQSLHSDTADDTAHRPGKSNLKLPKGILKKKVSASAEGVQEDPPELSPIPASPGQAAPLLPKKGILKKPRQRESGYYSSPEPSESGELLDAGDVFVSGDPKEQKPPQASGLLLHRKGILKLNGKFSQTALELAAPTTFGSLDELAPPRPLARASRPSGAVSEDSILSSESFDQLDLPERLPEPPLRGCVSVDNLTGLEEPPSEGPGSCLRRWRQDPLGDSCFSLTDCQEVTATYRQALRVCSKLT

[36] = target: Serine/threonine-protein kinase 36 (Homo sapiens) (UniProt Q9NRP7); details: Compound concentration 1000.0 nM
Chain of Serine/threonine-protein kinase 36 (Homo sapiens) (Q9NRP7 whole entry): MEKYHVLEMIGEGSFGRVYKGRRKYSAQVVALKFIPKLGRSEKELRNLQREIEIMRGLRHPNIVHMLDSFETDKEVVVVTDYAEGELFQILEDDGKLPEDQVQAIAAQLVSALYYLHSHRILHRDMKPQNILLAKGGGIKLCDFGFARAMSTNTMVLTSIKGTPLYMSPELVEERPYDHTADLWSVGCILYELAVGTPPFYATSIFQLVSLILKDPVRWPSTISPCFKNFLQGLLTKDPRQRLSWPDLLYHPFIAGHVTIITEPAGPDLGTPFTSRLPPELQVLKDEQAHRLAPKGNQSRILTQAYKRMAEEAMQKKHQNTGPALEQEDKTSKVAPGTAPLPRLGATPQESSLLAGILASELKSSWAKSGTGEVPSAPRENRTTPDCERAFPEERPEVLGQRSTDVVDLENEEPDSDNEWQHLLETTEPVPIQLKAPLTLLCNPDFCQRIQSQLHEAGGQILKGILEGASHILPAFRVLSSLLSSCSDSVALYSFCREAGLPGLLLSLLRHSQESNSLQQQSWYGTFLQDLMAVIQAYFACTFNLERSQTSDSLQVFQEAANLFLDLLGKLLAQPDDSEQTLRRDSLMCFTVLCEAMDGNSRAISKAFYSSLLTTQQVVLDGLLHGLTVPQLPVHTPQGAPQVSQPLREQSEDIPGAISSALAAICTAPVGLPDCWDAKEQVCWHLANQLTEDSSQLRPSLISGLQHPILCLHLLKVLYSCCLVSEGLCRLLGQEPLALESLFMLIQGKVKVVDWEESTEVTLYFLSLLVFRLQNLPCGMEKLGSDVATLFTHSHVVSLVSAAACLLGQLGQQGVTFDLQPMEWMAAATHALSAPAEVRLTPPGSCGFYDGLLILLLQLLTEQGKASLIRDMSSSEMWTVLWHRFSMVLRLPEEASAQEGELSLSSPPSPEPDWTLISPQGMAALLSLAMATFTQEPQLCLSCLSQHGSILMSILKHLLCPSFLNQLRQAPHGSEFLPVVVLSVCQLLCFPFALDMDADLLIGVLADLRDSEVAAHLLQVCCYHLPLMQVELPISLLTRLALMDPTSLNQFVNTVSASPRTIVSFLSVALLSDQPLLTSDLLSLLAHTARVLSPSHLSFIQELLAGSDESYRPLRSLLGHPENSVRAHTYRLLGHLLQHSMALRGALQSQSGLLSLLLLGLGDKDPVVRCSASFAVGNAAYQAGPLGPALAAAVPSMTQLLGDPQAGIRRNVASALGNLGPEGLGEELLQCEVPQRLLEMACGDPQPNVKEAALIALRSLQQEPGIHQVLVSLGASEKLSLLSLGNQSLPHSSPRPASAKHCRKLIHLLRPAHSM

[37] = target: Mitogen-activated protein kinase kinase kinase 7 (Homo sapiens) (UniProt O43318); details: Compound concentration 1000.0 nM
[38] = target: TGF-beta receptor type-1 (Homo sapiens) (UniProt P36897); details: Compound concentration 1000.0 nM
Chain of TGF-beta receptor type-1 (Homo sapiens) (P36897 whole entry): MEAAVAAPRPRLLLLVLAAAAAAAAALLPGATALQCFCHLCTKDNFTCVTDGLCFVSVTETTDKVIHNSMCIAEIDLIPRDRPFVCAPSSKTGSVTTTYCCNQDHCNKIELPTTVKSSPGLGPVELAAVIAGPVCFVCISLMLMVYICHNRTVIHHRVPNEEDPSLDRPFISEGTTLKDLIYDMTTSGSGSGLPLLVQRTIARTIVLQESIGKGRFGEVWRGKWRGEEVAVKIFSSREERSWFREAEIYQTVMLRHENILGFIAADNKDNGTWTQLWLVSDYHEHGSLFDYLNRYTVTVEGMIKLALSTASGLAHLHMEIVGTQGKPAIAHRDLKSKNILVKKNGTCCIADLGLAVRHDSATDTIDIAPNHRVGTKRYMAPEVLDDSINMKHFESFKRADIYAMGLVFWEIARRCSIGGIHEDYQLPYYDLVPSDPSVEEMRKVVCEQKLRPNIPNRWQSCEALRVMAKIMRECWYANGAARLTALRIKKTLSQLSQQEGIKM

[39] = target: High affinity nerve growth factor receptor (Homo sapiens) (UniProt P04629); details: Compound concentration 1000.0 nM
[40] = target: Tyrosine-protein kinase TXK (Homo sapiens) (UniProt P42681); details: Compound concentration 1000.0 nM
[41] = target: Serine/threonine-protein kinase ULK1 (Homo sapiens) (UniProt O75385); details: Compound concentration 1000.0 nM
[42] = target: Serine/threonine-protein kinase WNK2 (Homo sapiens) (UniProt Q9Y3S1); details: Compound concentration 1000.0 nM
[43] = target: Mitogen-activated protein kinase kinase kinase 19 (Homo sapiens) (UniProt Q56UN5); details: Compound concentration 1000.0 nM
[44] = target: Mitogen-activated protein kinase kinase kinase 20 (Homo sapiens) (UniProt Q9NYL2); details: Compound concentration 1000.0 nM
[45] = target: Mu-type opioid receptor (Homo sapiens) (UniProt P35372); details: Compound concentration 10.0 uM
Chain of Mu-type opioid receptor (Homo sapiens) (P35372 whole entry): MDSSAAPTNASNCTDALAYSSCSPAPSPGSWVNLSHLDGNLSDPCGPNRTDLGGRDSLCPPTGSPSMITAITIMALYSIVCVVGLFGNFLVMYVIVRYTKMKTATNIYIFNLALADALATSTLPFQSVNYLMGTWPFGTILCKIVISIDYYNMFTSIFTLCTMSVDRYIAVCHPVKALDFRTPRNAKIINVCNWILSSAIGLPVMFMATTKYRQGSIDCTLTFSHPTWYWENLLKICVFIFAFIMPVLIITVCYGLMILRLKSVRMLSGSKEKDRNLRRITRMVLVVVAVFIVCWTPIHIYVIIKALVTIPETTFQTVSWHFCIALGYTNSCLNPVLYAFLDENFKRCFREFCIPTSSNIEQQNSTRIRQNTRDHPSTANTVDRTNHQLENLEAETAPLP

CN([C@@H]1CCc2c(CC(=O)O)c3ccccc3n2C1)S(=O)(=O)c1ccc(F)cc1 [MK-7246]
inactive: residual activity [1] 100% | residual activity [2] 100% | residual activity [3] 100% | residual activity [4] 100% | residual activity [5] 100% | residual activity [6] 99% | residual activity [7] 100% | residual activity [8] 100% | residual activity [9] 98% | residual activity [10] 100% | residual activity [11] 100% | residual activity [12] 100% | residual activity [13] 94% | residual activity [14] 100% | residual activity [15] 100% | residual activity [16] 100% | residual activity [17] 71% | residual activity [18] 96% | residual activity [19] 83% | residual activity [20] 100% | residual activity [21] 100% | residual activity [22] 100% | residual activity [23] 100% | residual activity [24] 100% | residual activity [25] 100% | residual activity [26] 100% | residual activity [27] 100% | residual activity [28] 98% | residual activity [29] 86% | residual activity [30] 100% | residual activity [31] 100% | residual activity [32] 83% | residual activity [33] 100% | residual activity [34] 100% | residual activity [35] 100% | residual activity [36] 100% | residual activity [37] 100% | residual activity [38] 100% | residual activity [39] 100% | residual activity [40] 93% | residual activity [41] 96% | residual activity [42] 92% | residual activity [43] 100% | residual activity [44] 99% | inhibition [45] 1.33%

CN([C@@H]1CCc2c(CC(=O)O)c3cc(S(C)(=O)=O)ccc3n2C1)S(=O)(=O)c1ccc(F)cc1
inactive: residual activity [1] 95% | residual activity [2] 78% | residual activity [3] 100% | residual activity [4] 92% | residual activity [5] 100% | residual activity [6] 91% | residual activity [7] 100% | residual activity [8] 100% | residual activity [9] 90% | residual activity [10] 87% | residual activity [11] 92% | residual activity [12] 100% | residual activity [13] 100% | residual activity [14] 100% | residual activity [15] 90% | residual activity [16] 100% | residual activity [17] 68% | residual activity [18] 100% | residual activity [19] 94% | residual activity [20] 100% | residual activity [21] 100% | residual activity [22] 93% | residual activity [23] 85% | residual activity [24] 100% | residual activity [25] 100% | residual activity [26] 100% | residual activity [27] 100% | residual activity [28] 79% | residual activity [29] 88% | residual activity [30] 100% | residual activity [31] 100% | residual activity [32] 90% | residual activity [33] 100% | residual activity [34] 100% | residual activity [35] 87% | residual activity [36] 98% | residual activity [37] 100% | residual activity [38] 100% | residual activity [39] 100% | residual activity [40] 74% | residual activity [41] 92% | residual activity [42] 80% | residual activity [43] 79% | residual activity [44] 80% | inhibition [45] 7.34%
